Results taken from patent publication US11098043B2, “Certain imidazopyridines as cyclic AMP response element binding (CREB) binding protein (CBP) inhibitors and uses thereof” (University of Massachusetts, priority 2017, dated 2021).

Assays:
CBP bromodomain = target: T1, CBP bromodomain (Homo sapiens, UniProt Q92793); assay: AlphaScreen in vitro binding assay with CBP; conditions: for IC50: AlphaScreen, isolated CBP bromodomain, means of at least two determinations; for Selectivity Value [BRD4(1) IC50 (μM)/CBP IC50 (μM)]: ratio BRD4(1) IC50 / CBP IC50
T1 construct: docked complex of Compound 21 with CBP bromodomain
T1 sequence (Q92793 1085-1192 limits assumed): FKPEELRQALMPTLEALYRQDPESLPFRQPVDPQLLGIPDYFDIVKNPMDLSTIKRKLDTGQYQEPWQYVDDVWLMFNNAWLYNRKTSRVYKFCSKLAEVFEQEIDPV
Procedure: (§1) To determine the binding selectivity of compounds provided, AlphaScreen in vitro binding assays were performed with either CBP or BRD4.
(§2) Assays were performed with minor modifications from the manufacturer's protocol (Perkin Elmer, USA). All reagents were diluted in AlphaScreen™ buffer (50 mM HEPES, 150 mM NaCl, 0.01% v/v Tween-20, 0.1% w/v BSA, pH 7.4). After addition of Alpha beads to master solutions, all subsequent steps were performed under low light conditions. A 2× solution of components with final concentrations of His-BRD4(1) at 20 nM or His-CBP at 50 nM, Ni-coated Acceptor bead at 10 μg/ml, and biotinylated-JQ1 at 10 nM or biotinylated peptide at 100 nM was added in 10 μL to 384-well plates (AlphaPlate-384, PerkinElmer) using an EL406 liquid handler (Biotek, USA). Plates were spun down at 1000 rpm. A 10-point 1: √{square root over (sqrt(10))} serial dilution of compounds in DMSO was prepared at 200× the final concentration. 100 nL of compound from these stock plates were added by pin transfer using a Janus Workstation (PerkinElmer). A 2× solution of streptavidin-coated donor beads with a final concentration of 10 μg/ml was added in a 10 μL volume. The plates were spun down again at 1000 rpm and sealed with foil to prevent light exposure and evaporation. The plates were then incubated at room temperature for 1 hour and read on an Envision 2104 (PerkinElmer) using the manufacturer's protocol. IC50 values were calculated using a 4-parameter logistic curve in Prism 6 (GraphPad Software, USA) after normalization to DMSO-treated negative control wells.

BRD4(1) bromodomain = target: T2, BRD4(1) bromodomain (Homo sapiens, UniProt O60885); assay: AlphaScreen in vitro binding assay with BRD4; conditions: isolated BRD4 bromodomain, means of at least two determinations
T2 construct: final concentrations of His-BRD4(1) at 20 nM
Procedure: as §1
as §2, with “A 2× solution of components with final concentrations of His-BRD4(1) at 20 nM or His-CBP at 50 nM, Ni-coated Acceptor bead at 10 μg/ml, and biotinylated-JQ1 at 10 nM or biotinylated peptide at 100 nM was added in 10 μL to 384-well plates (AlphaPlate-384, PerkinElmer) using an EL406 liquid handler (Biotek, USA).” left out

Structure (SMILES)	IC50 (CBP bromodomain) [µM]	Selectivity Value [BRD4(1) IC50 (μM)/CBP IC50 (μM)] (CBP bromodomain)	IC50 (BRD4(1) bromodomain) [µM]
COc1ccc(CCc2nc3cc(-c4c(C)noc4C)ccn3c2NC(C)C)cc1 [Compound 19, 7-(3,5-dimethylisoxazol-4-yl)-N-isopropyl-2-(4-methoxyphenethyl)imidazo[1,2-a]pyridin-3-amine]	0.296	34	10.1
CCCOc1ccc(CCc2nc3cc(-c4c(C)noc4C)ccn3c2NC2CCCCC2)cc1 [Compound 23]	0.633	28	17.9
COc1ccc(CCc2nc3cc(-c4c(C)noc4C)ccn3c2NCC(=O)OC(C)(C)C)cc1 [Compound 15]	1.55	3	4.22
CCOc1ccc(CCc2nc3cc(-c4c(C)noc4C)ccn3c2NC(C)(C)CC(C)(C)C)cc1 [Compound 29, 7-(3,5-dimethylisoxazol-4-yl)-2-(4-ethoxyphenethyl)-N-(2,4,4-trimethylpentan-2-yl)imidazo[1,2-a]pyridin-3-amine]	38.5	>1	> 50
COc1ccc(CCc2nc3cc(-c4c(C)noc4C)ccn3c2NCCN2CCOCC2)cc1 [Compound 17]	0.464	7	3.42
COc1ccc(CCCc2nc3cc(-c4c(C)noc4C)ccn3c2NC2CCCCC2)cc1 [Compound 27, N-cyclohexyl-7-(3,5-dimethylisoxazol-4-yl)-2-(3-(4-methoxyphenyl)propyl)imidazo[1,2-a]pyridin-3-amine]	4.95	3	12.3
Cc1[nH]nc2ccc(-c3ccn4c(NC5CCCCC5)c(CCc5ccccc5)nc4c3)cc12 [Compound 11]	8.02	<1	0.51
Cc1noc(C)c1-c1ccn2c(NC(C)(C)C)c(CCc3ccccc3)nc2c1 [Compound 14, N-(tert-butyl)-7-(3,5-dimethylisoxazol-4-yl)-2-phenethylimidazo[1,2-a]pyridin-3-amine]	0.956	6	5.64
CCOc1ccc(CCc2nc3cc(-c4c(C)noc4C)ccn3c2NC2CCCCC2)cc1 [Compound 22, N-cyclohexyl-7-(3,5-dimethylisoxazol-4-yl)-2-(4-ethoxyphenethyl)imidazo[1,2-a]pyridin-3-amine]	0.214	30	6.48
Cc1noc(C)c1-c1ccn2c(NC3CCCCC3)c(CCc3ccccc3)nc2c1 [Compound 5, N-cyclohexyl-7-(3,5-dimethylisoxazol-4-yl)-2-phenethylimidazo[1,2-a]pyridin-3-amine]	0.718	10	7.43
Cc1noc(C)c1-c1ccn2c(NC34CC5CC(CC(C5)C3)C4)c(CCc3ccccc3)nc2c1 [Compound 6]	0.507	7	3.38
COc1ccc(CCc2nc3cc(-c4c(C)noc4C)ccn3c2NC23CC4CC(CC(C4)C2)C3)cc1 [Compound 16, N-((3s,5s,7s)-adamantan-1-yl)-7-(3,5-dimethylisoxazol-4-yl)-2-(4-methoxyphenethyl)imidazo[1,2-a]pyridine-3-amine]	0.923	8	7.11
COc1ccc(CCc2nc3cc(-c4c(C)noc4C)ccn3c2NC2CCCCC2)cc1OC [Compound 33]	0.759	8	6.22
COc1ccc(CCc2nc3cc(-c4c(C)noc4C)ccn3c2N[C@H](C)c2ccccc2)cc1 [Compound 37]	1.57	7	11
Cc1noc(C)c1-c1ccn2c(NC3CCCCC3)c(CCc3ccc(OC(C)C)cc3)nc2c1 [Compound 36]	0.737	11	8.18
COc1ccc(CCc2nc3cc(-c4c(C)noc4C)ccn3c2NC(C)C)cc1OC [Compound 34]	3.52	6	22.6
COc1ccc(-c2nc3cc(-c4c(C)noc4C)ccn3c2NCC(=O)OC(C)(C)C)cc1 [Compound 7]	1.17	3	2.96
Cc1noc(C)c1-c1ccn2c(NC(C)(C)CC(C)(C)C)c(CCc3ccccc3)nc2c1 [Compound 13, 7-(3,5-dimethylisoxazol-4-yl)-2-phenethyl-N-(2,4,4-trimethylpentan-2-yl)imidazo[1,2-a]pyridin-3-amine]	1.88	1	2.77
CN1Cc2cc(-c3ccn4c(NC5CCCCC5)c(CCc5ccccc5)nc4c3)ccc2NC1=O [Compound 10]	8.12	<1	7.55
